Measured values published in US4255435A, “Triazole compounds” (priority 1980, dated 1981).

Tests used:
[1] = test system: larvae of the diamond back moth (Plutella maculipennis); assay: Mortality of larvae of the diamond back moth on treated cabbage leaf; assay type: in vivo; settings: Table 1; cabbage leaf dipped in test solution, mortality after 24 + 24 hours, two replicates; 2880 min
Procedure: (§1) Ten larvae were placed in a tube together with a square inch of cabbage leaf which had been dipped in the test solution and allowed to dry. After twenty-four hours untreated cabbage was added for food and after a further twenty-four hours an assessment was made of the mortality of the larvae.
Two replicates were carried out for each test compound and test solutions of varying concentrations employed so that an LD50 value could be calculated.

[2] = test system: larvae of the cabbage white butterfly (Pieris brassicae); assay: Mortality of larvae of the cabbage white butterfly on treated cabbage leaf; assay type: in vivo; settings: Table 3; cabbage leaf dipped in test solution, mortality after 24 + 24 hours, two replicates; 2880 min
Procedure: This example illustrates the activity of compounds of the invention against larvae of the cabbage white butterfly (Pieris brassicae).
as §1

[3] = test system: larvae of the codling moth (Cydia pomonella); assay: Codling moth larvae on sprayed apple (number of strikes); assay type: in vivo; settings: Table 5, after five days, two replicates, 7200 min
From the text: This example illustrates the activity of compounds of the invention against the larvae of the codling moth (Cydia pomonella).
An apple sprayed with test solution was allowed to dry and a perspex ring of 1 inch diameter was attached to the apple. Ten larvae were then placed on the apple surface and contained within the ring by means of a muslin covering. After five days an assessment of mortality was made by counting the number of strikes (i.e. the number of entry holes) made by the larvae.

aphid Megoura viciae = assay: Aphids on sprayed broad bean plants; assay type: in vivo; settings: Table 6; sprayed infested broad bean plants, 24 hours
Procedure: Broad bean plants 3 to 5 cm. high were infested with aphids and then sprayed with an aqueous dispersion containing varying concentrations of test compound. Each plant was kept under a lamp glass for 24 hours and then examined. In this way an LD50 value for the compounds was calculated.

[4] = test system: eggs of the cabbage root fly (Erioischia brassicae); assay: Egg hatch of cabbage root fly eggs in test solution; assay type: in vivo; settings: Table 4; eggs stored six days, egg hatch counted, two replicates; 8640 min
From the text: This example illustrates the activity of compounds of the invention against the eggs of the cabbage root fly (Erioischia brassicae).
The eggs were then stored for six days and the egg hatch then counted.

[5] = test system: nematode Meloidogyne incognita incognita; assay: Root knots of tomato plants in nematode-infested treated soil; assay type: in vivo; settings: 100 parts per million per unit volume of soil, 30° C., ten days; untreated controls average more than 20 knots
Procedure: This example illustrates the activity of compounds of the invention against the nematode Meloidogyne incognita incognita.
Small tomato plants were transferred to containers with infested soil. Sufficient test compound to give a concentration of 100 parts per million per unit volume of soil was poured onto the soil and the containers suspended in warm water at 30° C.
After ten days the plants were knocked out of the containers and the roots washed clean, the number of knots being noted. The latter was an indication of activity and a low score indicated high activity.

insects = assay: Insecticidal activity; assay type: in vivo; settings: in words
Mammalian toxicity = assay type: in vivo; settings: in words
[6] = acute
[7] = acute; remark: listed apart in the source

Compound	ACTIVITY LD50 [1]	ACTIVITY LD50 [2]	ACTIVITY LD50 [3]	ACTIVITY LD50 (aphid Megoura viciae)	ACTIVITY LD50 [4]	number of knots on roots [5]	insecticidal activity (insects)	mammalian toxicity (Mammalian toxicity)	mammalian toxicity when presented as a powder formulation (Mammalian toxicity; (wettable) powder formulation, listed as first compound)	mammalian toxicity when presented as a powder formulation (Mammalian toxicity; wettable powder formulation)	Oral toxicity (rat) LD50 [6]	Dermal toxicity (rat) LD50 (acute, dermal, rat)	effect of wettable powder formulation on dermal toxicity (in words, wettable powder formulation)	Oral toxicity (mouse) LD50 [7]
1(2)-N,N-dimethylcarbamoyl-3-isopropyl-5-methylthio-1,2,4-triazole [methyl methyl isopropyl methyl]	160 p.p.m.	59 p.p.m.	37 p.p.m.	1.1 p.p.m.	–	–	–	–	–	–	–	–	–	–
1(2)-N,N-dimethylcarbamoyl-3-t-butyl-5-but-2-enylthio-1,2,4-triazole [methyl methyl t-butyl but-2-enyl]	220 p.p.m.	27 p.p.m.	10 p.p.m.	0.19 p.p.m.	1.2 p.p.m.	≤ 2 knots	high insecticidal activity	low mammalian toxicity	sufficiently low	sufficiently low mammalian toxicity	40 to 80 mg/kg	40 mg/kg	reduces the dermal toxicity	80 to 160 mg/kg
CSc1nc(C(C)(C)C)nn1C(=O)N(C)C [methyl methyl t-butyl methyl, 1-N,N-dimethylcarbamoyl-3-t-butyl-5-methylthio-1,2,4-triazole]	–	–	–	–	–	≤ 2 knots	insecticidally active	too high to permit the more widespread use	–	–	–	–	–	–
C#CCSc1nc(C(C)(C)C)nn1C(=O)N(C)C [methyl methyl t-butyl prop-2-ynyl, 1(2)-N,N-dimethylcarbamoyl-3-t-butyl-5-prop-2-ynylthio-1,2,4-triazole]	33 p.p.m.	27 p.p.m.	–	1.1 p.p.m.	0.8 p.p.m.	≤ 2 knots	–	–	–	–	–	–	–	–
